# Experimental data taken from the supplement of paper PMC3974653.
# Where a name gives a salt, the structure may show the parent alone.
# Tested on: MTT (mouse pheochromocytoma)
# Assay: IC50 of cell viability (ATP content)
# Details: (24 or 48 h)
# Summary of the method: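 Cells of the MTT mouse pheochromocytoma line, 5 µl per well at 200,000 cells/ml, were grown overnight at 37°C, 5% CO2 in white 1536-well plates with DMEM, 5% FBS and 1% horse serum. Pintool transfer then delivered 23 nl of library compound in DMSO, giving 8 final concentrations from 0.5 nM to 46 µM, for an exposure of 24 or 48 hrs. Luminescence from CellTiter-Glo was read after 15 minutes and referenced to positive-control wells (100%) and DMSO wells (0%). IC50 was calculated with a four-parameter logistic fit.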
row,SMILES,IC50 of cell viability
1,CC(C)[C@H](N)C(=O)OCC(CO)OC[N]1C=NC2=C1\N=C(\N)NC2=O (some centres not stated) [VALGANCICLOVIR HYDROCHLORIDE],> 46 µM
2,CC(C)[C@@H](N)C(=O)O [VALINE],> 46 µM
3,C=C[C@@]1(C)C[C@H](OC(=O)CSC(C)(C)CNC(=O)[C@@H](N)C(C)C)[C@@]2(C)C(C)CC[C@@]3(CCC(=O)[C@@H]32)[C@H](C)[C@H]1O (some centres not stated) [VALNEMULIN HYDROCHLORIDE],> 46 µM
4,CCCCC(=O)N(Cc1ccc(-c2ccccc2-c2nn[nH]n2)cc1)C(C(=O)O)C(C)C (configuration not stated) [VALSARTAN],> 46 µM
5,CN[C@H](CC(C)C)C(=O)N[C@H]1C(=O)N[C@@H](CC(N)=O)C(=O)N[C@H]2C(=O)N[C@H]3C(=O)N[C@H](C(=O)N[C@H](C(=O)O)c4cc(O)cc(O)c4-c4cc3ccc4O)[C@H](O)c3ccc(c(Cl)c3)Oc3cc2cc(c3O[C@@H]2OC(CO)[C@@H](O)[C@H](O)[C@H]2O[C@H]2C[C@](C)(N)[C@H](O)[C@H](C)O2)Oc2ccc(cc2Cl)[C@H]1O (some centres not stated) [VANCOMYCIN HYDROCHLORIDE],> 46 µM
6,O=C(O)CC/C=C\CC[C@@H]1[C@@H](N2CCCCC2)[C@@H](O)C[C@@H]1OCc1ccc(-c2ccccc2)cc1 [VAPIPROST HYDROCHLORIDE],> 46 µM
7,CCCc1nc(C)c2c(=O)nc(-c3cc([S+](=O)([O-])N4CCN(CC)CC4)ccc3OCC)[nH]n12 [VARDENAFIL HYDROCHLORIDE],> 46 µM
8,Clc1ccc(Nc2nnc(Cc3ccncc3)c3ccccc23)cc1 [VATALANIBUM],> 46 µM
9,CC(=O)O[C@H]1C[C@@H]2CC[C@@H]3[C@H](CC[C@@]4(C)[C@H]3C[C@H]([N+]3(C)CCCCC3)[C@@H]4OC(C)=O)[C@@]2(C)C[C@@H]1N1CCCCC1 [VECURONIUM BROMIDE],> 46 µM
10,COc1ccc(C(CN(C)C)C2(O)CCCCC2)cc1 (configuration not stated) [VENLAFAXINE],> 46 µM
11,COc1ccc(CCN(C)CCCC(C#N)(c2ccc(OC)c(OC)c2)C(C)C)cc1OC (configuration not stated) [VERAPAMIL],> 46 µM
12,C=CC(N)CCC(=O)O (configuration not stated) [VIGABATRIN],> 46 µM
13,CC[C@@]12CCCN3CCc4c(n(c5ccccc45)[C@](O)(C(=O)OC)C1)C32 (some centres not stated) [VINCAMINE],> 46 µM
14,CCOC(=O)\C1=C\[C@@]2(CC)CCCN3CCC4=C([C@@H]23)[N]1C5=C4C=CC=C5 [VINPOCETINE],> 46 µM
15,CCOC(=O)\C1=C\[C@]2(CC)CCCN3CCC4=C([C@H]23)[N]1C5=C4C=CC=C5 [VINPOCETINE],> 46 µM
16,NCCCC(N)CC(=O)NC1CNC(=O)C(C2CC(O)NC(N)=N2)NC(=O)/C(=C/NC(N)=O)NC(=O)C(CO)NC(=O)C(CO)NC1=O (configuration not stated) [VIOMYCIN SULFATE],> 46 µM
17,CCC1NC(=O)C(NC(=O)c2ncccc2O)C(C)OC(=O)C(c2ccccc2)NC(=O)C2CC(=O)CCN2C(=O)C(Cc2ccccc2)N(C)C(=O)C2CCCN2C1=O (configuration not stated) [VIRGINIAMYCIN],> 46 µM
18,CC(C)[C@H](N)C(=O)OCCOCn1cnc2c(O)nc(N)nc21 [Valacyclovir hydrochloride],> 46 µM
19,CCCCC(=O)O [Valeric acid],> 46 µM
20,CCCCC(=O)[O-] [Valeric acid],> 46 µM
21,CCCC(CCC)C(=O)O [Valproic acid],> 46 µM
22,CCCC(CCC)C(N)=O [Valpromide],> 46 µM
23,CN[C@@H](CC(C)C)C(=O)N[C@@H]1C(=O)N[C@H](CC(N)=O)C(=O)N[C@H]2C(=O)N[C@@H]3C(=O)N[C@H](C(=O)N[C@H](C(=O)O)c4cc(O)cc(O)c4-c4cc3ccc4O)[C@H](O)c3ccc(c(Cl)c3)Oc3cc2cc(c3O[C@@H]2O[C@@H](CO)[C@@H](O)[C@@H](O)[C@H]2O[C@H]2C[C@](C)(N)[C@H](O)[C@H](C)O2)Oc2ccc(cc2Cl)[C@@H]1O [Vancomycin hydrochloride],> 46 µM
24,CCN(CC)C(=O)c1ccc(O)c(OC)c1 [Vanillic acid diethylamide],> 46 µM
25,FC(F)(F)c1cccc(C2=CCN(CCc3ccc4ccccc4c3)CC2)c1 [XALIPRODEN HYDROCHLORIDE],> 46 µM
26,CC1=CC=CC(=C1N\C2=N\CCCS2)C [XYLAZINE],> 46 µM
27,O=C([O-])c1ccccc1O [ZINC SALICYLATE],> 46 µM

# The next lines start with the values.
row,IC50 of cell viability,SMILES
1,> 46 µM,COc1cc(C=O)ccc1O [Vanillin]
2,> 46 µM,COc1cc(C(=S)N2CCOCC2)ccc1O [Vanitiolida]
3,> 46 µM,c1cnc2cc3c(cc2n1)[C@@H]1CNC[C@@H]3C1 [Varenicline Tartrate]
4,> 46 µM,c1cnc2cc3c(cc2n1)C1CNCC3C1 [Varenicline]
5,> 46 µM,Clc1ccc(Nc2nnc(Cc3ccncc3)c3ccccc23)cc1 [Vatalanib Dihydrochloride]
6,> 46 µM,C=CCN1CCCC1CNC(=O)c1cc([S+](N)(=O)[O-])cc(OC)c1OC (configuration not stated) [Veraliprida]
7,> 46 µM,COc1ccc(/C=N/NC(=O)c2ccncc2)cc1OC [Verazide]
8,> 46 µM,CC=1C2=CC3=N/C(=C/C4=C(C(=C(N4)/C=C/5\N=C(/C=C(/C1CCC(=O)O)\N2)C(=C5C)CCC(=O)OC)C=C)C)/C6=CC=C([C@H]([C@]36C)C(=O)OC)C(=O)OC.CC1=C2/C=C/3\N=C(/C=C/4\C(=C(/C(/N4)=C/C5=N/C(=C\C(=C1CCC(=O)OC)N2)/C(=C5C)CCC(=O)O)C=C)C)C6=CC=C([C@H]([C@]36C)C(=O)OC)C(=O)OC [Verteporfin]
9,> 46 µM,CC[C@@]1(O)CC2CN(CCC3=C([NH]C4=CC=CC=C34)[C@](C2)(C(=O)OC)C5=C(OC)C=C6N(C)C7[C@](O)([C@H](O)[C@]8(CC)\C=C/CN9CC[C@@]7([C@H]89)C6=C5)C(N)=O)C1 (some centres not stated) [Vindesine Sulfate Salt]
10,> 46 µM,C=CS(=O)(=O)[O-] [Vinylsulfonic acid sodium salt solution]
11,> 46 µM,O=C(O)CCCCC1SCC2NC(=O)NC21 (configuration not stated) [Vitamin B7]
12,> 46 µM,CC(=O)Oc1c(C)c(C)c2c(c1C)CC[C@@](C)(CCC[C@H](C)CCC[C@H](C)CCCC(C)C)O2 [Vitamin E acetate]
13,> 46 µM,CC(C)=CCC/C(C)=C\CC/C(C)=C\CC/C(C)=C\CC1=C(C)C(=O)c2ccccc2C1=O [Vitamin K2]
14,> 46 µM,CC(c1ncncc1F)[C@](O)(Cn1cncn1)c1ccc(F)cc1F (some centres not stated) [Voriconazole]
15,> 46 µM,CC(=O)CC(c1ccccc1)C1C(=O)Oc2ccccc2C1=O (configuration not stated) [WARFARIN POTASSIUM]
16,> 46 µM,CC(=O)CC(C1=CC=CC=C1)C/2=C(O)/C3=CC=CC=C3OC2=O (configuration not stated) [WARFARIN]
17,> 46 µM,O=C(NCCNCC(O)COc1ccc(O)cc1)N1CCOCC1 (configuration not stated) [XAMOTEROL]
18,> 46 µM,CN(CCO)CC(O)Cn1cnc2c1c(=O)n(C)c(=O)n2C.O=C(O)c1cccnc1 (configuration not stated) [Xanthinol niacinate]

row,IC50 of cell viability,SMILES
1,> 46 µM,O=C(O)c1ccccc1-c1ccc(C(F)(F)F)cc1 [Xenalipin]
2,> 46 µM,Cc1cccc(C)c1NC(=O)NC1=CCCN1C [Xilobam]
3,> 46 µM,CCOC(=O)CN[C@@H](C(=O)N1CC[C@H]1C(=O)NCc1ccc(/C(N)=N/O)cc1)C1CCCCC1 [Ximelagatran]
4,> 46 µM,Cc1cccc(C)c1NC(=O)c1cc([S+](N)(=O)[O-])c(Cl)cc1O [Xipamide]
5,> 46 µM,CC1=CC(=CC(=C1C\C2=N\CCN2)C)C(C)(C)C [Xylometazoline hydrochloride]
6,> 46 µM,OC1OC[C@@H](O)[C@H](O)[C@@H]1O (some centres not stated) [Xylose]
7,> 46 µM,COC(=O)[C@@H]1[C@@H]2C[C@H]3c4[nH]c5ccccc5c4CCN3C[C@@H]2CC[C@@H]1O [Yohimbine]
8,> 46 µM,O.O=C(O)[C@H]1[C@H]2C[C@H]3c4[nH]c5ccccc5c4CCN3C[C@@H]2CC[C@@H]1O [Yohimbinic acid monohydrate]
9,> 46 µM,CC1(CN2CCC(n3c(=O)[nH]c4ccccc43)CC2)OCc2ccccc2-n2cccc21 (configuration not stated) [ZALDARIDUM]
10,> 46 µM,O=C(CCC1CCN(Cc2ccccc2)CC1)c1ccc2c(c1)NCCCC2 [ZANAPEZIL FUMARATE]
11,> 46 µM,COc1ccc(CCN(C)CCCN2CCc3cc(OC)c(OC)cc3CC2=O)cc1OC [ZATEBRADINUM]
12,> 46 µM,O=C(O)Cc1ccc(OCCNC[C@H](O)c2ccccc2)cc1 [ZD 2079]
13,> 46 µM,CC1=C(/C=C/C(C)=C\C=C\C(C)=C\C=C\C=C(C)\C=C\C=C(C)\C=C\C2=C(C)C[C@@H](O)CC2(C)C)C(C)(C)C[C@H](O)C1 [ZEAXANTHIN]
14,> 46 µM,C\C1=C\N([C@H]2C[C@H](N=[N+]=[N-])[C@@H](CO)O2)C(=O)NC1=O [ZIDOVUDINE]
15,> 46 µM,CC(CSC(=O)c1ccccc1)C(=O)N1CC(Sc2ccccc2)CC1C(=O)[O-] (configuration not stated) [ZOFENOPRIL Calcium Salt]
16,> 46 µM,C[C@H](CSC(=O)c1ccccc1)C(=O)N1C[C@@H](Sc2ccccc2)C[C@H]1C(=O)O [ZOFENOPRIL]
17,> 46 µM,CN(C)CCc1c[nH]c2ccc(CC3COC(=O)N3)cc12 (configuration not stated) [ZOLMITRIPTAN]
